Laboratory results as given in patent US4479943A, “3-Demethoxyistamycin B, the 2"-N-formimidoyl derivative thereof and pharmaceutical composition containing same” (Zaidan Hojin Biseibutsu Kagaku Kenkyu Kai, priority 1982, dated 1984).
≈ marks a conversion by molar mass, not a printed value.

Key:
[1] = system: Escherichia coli K-12 LA290 R55; assay: Antibacterial MIC, standard serial dilution; type: cell-based; conditions: nutrient agar, 37° C., 17 hours, as free base
[2] = system: Pseudomonas aeruginosa A3; assay: Antibacterial MIC, standard serial dilution; type: cell-based; conditions: nutrient agar, 37° C., 17 hours, as free base
[3] = system: Staphylococcus aureus Smith; assay: Antibacterial MIC, standard serial dilution; type: cell-based; conditions: nutrient agar, 37° C., 17 hours, as free base
[4] = system: Escherichia coli W677; assay: Antibacterial MIC, standard serial dilution; type: cell-based; conditions: nutrient agar, 37° C., 17 hours, as free base
[5] = system: Pseudomonas aeruginosa No. 12; assay: Antibacterial MIC, standard serial dilution; type: cell-based; conditions: nutrient agar, 37° C., 17 hours, as free base
[6] = system: Klebsiella pneumoniae 22#3038; assay: Antibacterial MIC, standard serial dilution; type: cell-based; conditions: nutrient agar, 37° C., 17 hours, as free base
[7] = system: Bacillus subtilis PCI 219; assay: Antibacterial MIC, standard serial dilution; type: cell-based; conditions: nutrient agar, 37° C., 17 hours, as free base
[8] = system: Providencia sp. Pv16; assay: Antibacterial MIC, standard serial dilution; type: cell-based; conditions: nutrient agar, 37° C., 17 hours, as free base
[9] = system: Pseudomonas aeruginosa 21-75; assay: Antibacterial MIC, standard serial dilution; type: cell-based; conditions: nutrient agar, 37° C., 17 hours, as free base
[10] = system: Escherichia coli K-12 LA290 R56; assay: Antibacterial MIC, standard serial dilution; type: cell-based; conditions: nutrient agar, 37° C., 17 hours, as free base
[11] = system: Pseudomonas aeruginosa H11; assay: Antibacterial MIC, standard serial dilution; type: cell-based; conditions: nutrient agar, 37° C., 17 hours, as free base
[12] = system: Serratia sp. SOU; assay: Antibacterial MIC, standard serial dilution; type: cell-based; conditions: nutrient agar, 37° C., 17 hours, as free base
[13] = system: Pseudomonas aeruginosa K-Ps 102; assay: Antibacterial MIC, standard serial dilution; type: cell-based; conditions: nutrient agar, 37° C., 17 hours, as free base
[14] = system: Staphylococcus aureus FDA 209P; assay: Antibacterial MIC, standard serial dilution; type: cell-based; conditions: nutrient agar, 37° C., 17 hours, as free base
[15] = system: Escherichia coli K-12 ML1630; assay: Antibacterial MIC, standard serial dilution; type: cell-based; conditions: nutrient agar, 37° C., 17 hours, as free base
[16] = system: Proteus rettgeri GN311; assay: Antibacterial MIC, standard serial dilution; type: cell-based; conditions: nutrient agar, 37° C., 17 hours, as free base
[17] = system: Pseudomonas aeruginosa GN315; assay: Antibacterial MIC, standard serial dilution; type: cell-based; conditions: nutrient agar, 37° C., 17 hours, as free base
[18] = system: Providencia sp. 2991; assay: Antibacterial MIC, standard serial dilution; type: cell-based; conditions: nutrient agar, 37° C., 17 hours, as free base
[19] = system: Salmonella typhi T-63; assay: Antibacterial MIC, standard serial dilution; type: cell-based; conditions: nutrient agar, 37° C., 17 hours, as free base
[20] = system: Escherichia coli JR66/W677; assay: Antibacterial MIC, standard serial dilution; type: cell-based; conditions: nutrient agar, 37° C., 17 hours, as free base
[21] = system: Sarcina lutea PCI 1001; assay: Antibacterial MIC, standard serial dilution; type: cell-based; conditions: nutrient agar, 37° C., 17 hours, as free base
[22] = system: Escherichia coli JR225; assay: Antibacterial MIC, standard serial dilution; type: cell-based; conditions: nutrient agar, 37° C., 17 hours, as free base
[23] = system: Proteus vulgaris 0X19; assay: Antibacterial MIC, standard serial dilution; type: cell-based; conditions: nutrient agar, 37° C., 17 hours, as free base
[24] = system: Escherichia coli K-12 R388; assay: Antibacterial MIC, standard serial dilution; type: cell-based; conditions: nutrient agar, 37° C., 17 hours, as free base
[25] = system: Corynebacterium bovis 1810; assay: Antibacterial MIC, standard serial dilution; type: cell-based; conditions: nutrient agar, 37° C., 17 hours, as free base
[26] = system: Pseudomonas maltophilia GN 907; assay: Antibacterial MIC, standard serial dilution; type: cell-based; conditions: nutrient agar, 37° C., 17 hours, as free base
[27] = system: Bacillus cereus ATCC 10702; assay: Antibacterial MIC, standard serial dilution; type: cell-based; conditions: nutrient agar, 37° C., 17 hours, as free base
[28] = system: Klebsiella pneumoniae PCI602; assay: Antibacterial MIC, standard serial dilution; type: cell-based; conditions: nutrient agar, 37° C., 17 hours, as free base
[29] = system: Escherichia coli NIHJ; assay: Antibacterial MIC, standard serial dilution; type: cell-based; conditions: nutrient agar, 37° C., 17 hours, as free base
[30] = system: Escherichia coli K-12; assay: Antibacterial MIC, standard serial dilution; type: cell-based; conditions: nutrient agar, 37° C., 17 hours, as free base
[31] = system: Shigella dysenteriae JS11910; assay: Antibacterial MIC, standard serial dilution; type: cell-based; conditions: nutrient agar, 37° C., 17 hours, as free base
[32] = system: Micrococcus flavus FDA 16; assay: Antibacterial MIC, standard serial dilution; type: cell-based; conditions: nutrient agar, 37° C., 17 hours, as free base
[33] = system: Staphylococcus aureus Ap01; assay: Antibacterial MIC, standard serial dilution; type: cell-based; conditions: nutrient agar, 37° C., 17 hours, as free base
[34] = system: Pseudomonas aeruginosa 99; assay: Antibacterial MIC, standard serial dilution; type: cell-based; conditions: nutrient agar, 37° C., 17 hours, as free base
[35] = system: Escherichia coli K-12 ML1629; assay: Antibacterial MIC, standard serial dilution; type: cell-based; conditions: nutrient agar, 37° C., 17 hours, as free base
[36] = system: Escherichia coli K-12 J5R11-2; assay: Antibacterial MIC, standard serial dilution; type: cell-based; conditions: nutrient agar, 37° C., 17 hours, as free base
[37] = system: Proteus rettgeri GN466; assay: Antibacterial MIC, standard serial dilution; type: cell-based; conditions: nutrient agar, 37° C., 17 hours, as free base
[38] = system: Bacillus anthracis; type: cell-based; conditions: nutrient agar, 37° C., 17 hours, as free base
[39] = system: Bacillus subtilis NRRL B-558; assay: Antibacterial MIC, standard serial dilution; type: cell-based; conditions: nutrient agar, 37° C., 17 hours, as free base
[40] = system: Pseudomonas aeruginosa TI-13; assay: Antibacterial MIC, standard serial dilution; type: cell-based; conditions: nutrient agar, 37° C., 17 hours, as free base
[41] = system: Mycobacterium smegmatis ATCC 607; assay: Antibacterial MIC, standard serial dilution; type: cell-based; conditions: nutrient agar, 37° C., 17 hours, as free base
[42] = system: Staphylococcus epidermidis 109; assay: Antibacterial MIC, standard serial dilution; type: cell-based; conditions: nutrient agar, 37° C., 17 hours, as free base
[43] = system: Pseudomonas aeruginosa H9; assay: Antibacterial MIC, standard serial dilution; type: cell-based; conditions: nutrient agar, 37° C., 17 hours, as free base
[44] = system: Salmonella enteritidis 1891; assay: Antibacterial MIC, standard serial dilution; type: cell-based; conditions: nutrient agar, 37° C., 17 hours, as free base
[45] = system: Escherichia coli K-12 R5; assay: Antibacterial MIC, standard serial dilution; type: cell-based; conditions: nutrient agar, 37° C., 17 hours, as free base
[46] = system: Escherichia coli K-12 ML1410; assay: Antibacterial MIC, standard serial dilution; type: cell-based; conditions: nutrient agar, 37° C., 17 hours, as free base
[47] = system: Serratia sp. 4; assay: Antibacterial MIC, standard serial dilution; type: cell-based; conditions: nutrient agar, 37° C., 17 hours, as free base
[48] = system: Pseudomonas aeruginosa B-13; assay: Antibacterial MIC, standard serial dilution; type: cell-based; conditions: nutrient agar, 37° C., 17 hours, as free base
[49] = system: Pseudomonas aeruginosa PST1; assay: Antibacterial MIC, standard serial dilution; type: cell-based; conditions: nutrient agar, 37° C., 17 hours, as free base
[50] = system: Pseudomonas aeruginosa ROS 134/PU21; assay: Antibacterial MIC, standard serial dilution; type: cell-based; conditions: nutrient agar, 37° C., 17 hours, as free base
[51] = system: Serratia marcescens; assay: Antibacterial MIC, standard serial dilution; type: cell-based; conditions: nutrient agar, 37° C., 17 hours, as free base
[52] = system: bacteria; conditions: in words; earlier work; cited from earlier work

With `CNCC1CCC(N)C(OC2C(N)CC(O)C(N(C)C(=O)CNC=N)C2O)O1` (stereo not shown) [Demethyl formimidoyl ista B, 3-O-demethyl-2"-N-formimidoylistamycin B] the MIC [1] was 0.78 µg/mL (≈ 1.94 µM), the MIC [2] was 0.20 µg/mL (≈ 0.497 µM) and the MIC [3] was under 0.20 µg/mL. For the same compound, the MIC [4] was 0.39 µg/mL (≈ 0.969 µM), the MIC [5] was 12.5 µg/mL (≈ 31.1 µM) and the MIC [6] was 1.56 µg/mL (≈ 3.88 µM). It also gave an MIC [7] of 0.20 µg/mL (≈ 0.497 µM), an MIC [8] of 0.78 µg/mL (≈ 1.94 µM) and an MIC [9] of 25 µg/mL (≈ 62.1 µM). It also gave an MIC [10] of 0.78 µg/mL (≈ 1.94 µM), an MIC [11] of 25 µg/mL (≈ 62.1 µM) and an MIC [12] of 12.5 µg/mL (≈ 31.1 µM). The MIC [13] was 12.5 µg/mL (≈ 31.1 µM), the MIC [14] was 0.39 µg/mL (≈ 0.969 µM) and the MIC [15] was 1.56 µg/mL (≈ 3.88 µM). For the same compound, the MIC [16] was 0.39 µg/mL (≈ 0.969 µM), the MIC [17] was 6.25 µg/mL (≈ 15.5 µM) and the MIC [18] was 0.78 µg/mL (≈ 1.94 µM). It also gave an MIC [19] of under 0.20 µg/mL, an MIC [20] of 1.56 µg/mL (≈ 3.88 µM) and an MIC [21] of 0.39 µg/mL (≈ 0.969 µM). For the same compound, the MIC [22] was 0.39 µg/mL (≈ 0.969 µM), the MIC [23] was 0.39 µg/mL (≈ 0.969 µM) and the MIC [24] was 0.78 µg/mL (≈ 1.94 µM). The MIC [25] was under 0.20 µg/mL, the MIC [26] was over 100 µg/mL and the MIC [27] was 0.78 µg/mL (≈ 1.94 µM). It also gave an MIC [28] of 0.78 µg/mL (≈ 1.94 µM), an MIC [29] of 0.39 µg/mL (≈ 0.969 µM) and an MIC [30] of 0.78 µg/mL (≈ 1.94 µM). For the same compound, the MIC [31] was 1.56 µg/mL (≈ 3.88 µM), the MIC [32] was 0.39 µg/mL (≈ 0.969 µM) and the MIC [33] was 0.39 µg/mL (≈ 0.969 µM). It also gave an MIC [34] of 100 µg/mL (≈ 248 µM), an MIC [35] of 0.78 µg/mL (≈ 1.94 µM) and an MIC [36] of 1.56 µg/mL (≈ 3.88 µM). For the same compound, the MIC [37] was 0.39 µg/mL (≈ 0.969 µM), the MIC [38] was 0.39 µg/mL (≈ 0.969 µM) and the MIC [39] was under 0.20 µg/mL. For the same compound, the MIC [40] was 12.5 µg/mL (≈ 31.1 µM), the MIC [41] was 0.39 µg/mL (≈ 0.969 µM) and the MIC [42] was 0.20 µg/mL (≈ 0.497 µM). The MIC [43] was 12.5 µg/mL (≈ 31.1 µM), the MIC [44] was 1.56 µg/mL (≈ 3.88 µM) and the MIC [45] was 0.78 µg/mL (≈ 1.94 µM). It also gave an MIC [46] of 1.56 µg/mL (≈ 3.88 µM), an MIC [47] of 12.5 µg/mL (≈ 31.1 µM) and an MIC [48] of 100 µg/mL (≈ 248 µM). The MIC [49] was 25 µg/mL (≈ 62.1 µM), the MIC [50] was 100 µg/mL (≈ 248 µM) and the MIC [51] was 1.56 µg/mL (≈ 3.88 µM). For the same compound, the antibacterial activity [52] was “active not only against Pseudomonas aeruginosa but also against a variety of resistant bacteria”.
